The text below walks through data of PMC6060383, “Synthesis and pharmacological evaluation of novel isoquinoline N-sulphonylhydrazones designed as ROCK inhibitors” (Journal of Enzyme Inhibition and Medicinal Chemistry, 2018).

pIC50: −log10 of the molar value. Converted amounts (≈) assume the structure as drawn.

The target of series [1] is T1, ROCK1 human recombinant enzyme (Homo sapiens, UniProt Q13464).
T1 construct: purchased EUROFINS-CEREP France (contract assay, study numbers 100033685 and 100040481); host or cells: Sf9 insect cells
T1 sequence (Q13464 whole entry): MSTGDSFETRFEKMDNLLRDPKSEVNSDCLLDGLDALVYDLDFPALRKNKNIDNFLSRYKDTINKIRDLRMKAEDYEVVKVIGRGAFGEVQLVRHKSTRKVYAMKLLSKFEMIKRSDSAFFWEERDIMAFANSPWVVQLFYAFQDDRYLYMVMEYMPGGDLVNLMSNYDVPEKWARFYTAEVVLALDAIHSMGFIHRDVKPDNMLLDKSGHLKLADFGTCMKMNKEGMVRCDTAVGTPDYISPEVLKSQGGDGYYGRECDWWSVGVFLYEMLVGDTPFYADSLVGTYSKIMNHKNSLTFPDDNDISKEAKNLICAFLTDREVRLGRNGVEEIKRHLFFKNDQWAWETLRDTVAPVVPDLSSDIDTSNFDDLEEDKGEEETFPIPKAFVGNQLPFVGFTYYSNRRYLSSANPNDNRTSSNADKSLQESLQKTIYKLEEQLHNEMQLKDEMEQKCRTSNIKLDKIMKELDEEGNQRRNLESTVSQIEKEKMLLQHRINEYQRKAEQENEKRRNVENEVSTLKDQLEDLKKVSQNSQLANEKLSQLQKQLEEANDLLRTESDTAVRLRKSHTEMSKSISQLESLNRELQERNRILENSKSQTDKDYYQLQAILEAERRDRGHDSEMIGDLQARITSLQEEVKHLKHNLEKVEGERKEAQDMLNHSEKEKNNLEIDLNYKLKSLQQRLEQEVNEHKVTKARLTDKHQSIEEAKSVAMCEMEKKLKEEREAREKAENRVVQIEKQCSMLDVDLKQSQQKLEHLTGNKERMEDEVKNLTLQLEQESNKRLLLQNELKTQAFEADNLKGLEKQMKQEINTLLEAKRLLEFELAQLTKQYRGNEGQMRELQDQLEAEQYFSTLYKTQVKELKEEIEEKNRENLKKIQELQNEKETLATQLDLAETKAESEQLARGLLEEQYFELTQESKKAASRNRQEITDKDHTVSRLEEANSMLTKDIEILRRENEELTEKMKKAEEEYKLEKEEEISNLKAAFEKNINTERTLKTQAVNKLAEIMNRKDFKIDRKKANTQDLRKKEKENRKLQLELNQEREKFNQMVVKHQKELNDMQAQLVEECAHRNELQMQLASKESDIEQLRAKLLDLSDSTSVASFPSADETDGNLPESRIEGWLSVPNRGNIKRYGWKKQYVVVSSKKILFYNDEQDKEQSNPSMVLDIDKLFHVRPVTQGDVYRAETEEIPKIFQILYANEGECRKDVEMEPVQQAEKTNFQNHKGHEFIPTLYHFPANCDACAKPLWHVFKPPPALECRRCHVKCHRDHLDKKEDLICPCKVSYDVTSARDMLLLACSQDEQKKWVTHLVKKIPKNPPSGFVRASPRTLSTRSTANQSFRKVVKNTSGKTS
The series is described as follows: ROCK1 inhibition assay (Eurofins-Cerep, phosphorylation of Ulight-RRRSLLE substrate). The format is biochemical. The settings on record: for inhibition at 3 µM: screening concentration 3 μM, average of two experiments. On the procedure: (§1) The analysis was performed using software developed at Cerep (Hill software) and GraphPad Prism® 5.0 (GraphPad Software, Inc., San Diego, CA) and validated through comparison with results generated using the SigmaPlot 4.0 software.
(§2) Prior to this assay, we evaluated the solubility of these compounds in water (buffer pH 7.4) to ensure that the inhibition percentages were not influenced by the precipitation of the compounds under test conditions.

In series [2] the target is T2, ROCK2 human recombinant enzyme (Homo sapiens, UniProt O75116).
T2 construct: purchased EUROFINS-CEREP France (contract assay, study numbers 100033685 and 100040481); host or cells: Sf21 insect cells
T2 sequence (O75116 1-543 limits assumed): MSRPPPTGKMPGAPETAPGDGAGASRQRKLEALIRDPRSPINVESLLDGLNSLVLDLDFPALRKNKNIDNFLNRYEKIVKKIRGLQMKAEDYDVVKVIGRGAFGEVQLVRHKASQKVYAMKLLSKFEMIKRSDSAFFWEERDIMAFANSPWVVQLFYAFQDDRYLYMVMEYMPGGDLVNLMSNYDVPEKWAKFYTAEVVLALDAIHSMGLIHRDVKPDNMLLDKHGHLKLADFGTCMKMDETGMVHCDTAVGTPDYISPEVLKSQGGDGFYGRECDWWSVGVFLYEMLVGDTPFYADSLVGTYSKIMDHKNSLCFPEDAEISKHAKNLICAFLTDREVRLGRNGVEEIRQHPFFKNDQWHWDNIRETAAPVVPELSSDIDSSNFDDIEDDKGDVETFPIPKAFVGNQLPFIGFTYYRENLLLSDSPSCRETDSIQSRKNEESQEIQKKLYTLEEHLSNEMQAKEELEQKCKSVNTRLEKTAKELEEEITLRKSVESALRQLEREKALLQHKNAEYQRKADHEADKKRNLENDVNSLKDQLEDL
The series is described as follows: ROCK2 inhibition assay (Eurofins-Cerep, phosphorylation of Ulight-RRRSLLE substrate). Particulars: for inhibition at 3 µM: screening concentration 3 μM, average of two experiments. The series is classed as biochemical. The procedure: as §1, §2

Series [3] in a line: Water solubility assay (UV spectrophotometric method). The series is classed as physicochemical. The settings on record: aqueous buffer, thermodynamic from solid, water (buffer pH 7.4), stirring 4 h at 37 °C. The procedure: The solubility assay was performed considering the absorptivity of compounds under ultraviolet spectroscopy as described by Schneider et al.[20] Assay wavelength was determined through λmax characteristic of each compound. Saturated aqueous solutions were prepared (0.8–1.0 mg/mL) and kept under stirring for 4 h at 37 °C. The supernatant was filtered in […] filters and transferred to a quartz cuvette (10 mm) for spectra acquisition. Solubility was determined by linear regression used as Excel graph plots, solutions were prepared by dilutions of the original solution in methanol. Data were collected in triplicate and the mean values were used to create the graph plots. The correlation coefficient (R^2) values were between 0.9982 and 1.
The N-sulphonylhydrazone derivatives 5a–h were evaluated for their ability to inhibit both ROCK1 and ROCK2 isoforms by measuring the phosphorylation of the Ulight-RRRSLLE substrate using human recombinant enzymes expressed in Sf9[23] and Sf21^24 cells, respectively. Prior to this assay, we evaluated the solubility of these compounds in water (buffer pH 7.4) to ensure that the inhibition percentages were not influenced by the precipitation of the compounds under test conditions. The enzymatic assay was initially performed at a screening concentration of 3 μM, which is capable of guaranteeing the solubility of most of the compounds, and the obtained results are shown in Table 2.

Setting [4] is: ROCK inhibition assays, 1 to 50 µM.

In general, inhibition refers to the relative decrease from the control value, in per cent. A word on the solubility: it is the dissolved amount per volume that the medium holds. Higher therefore signals a readily soluble substance. For orientation: melting point means the temperature, or range, at which the solid turns liquid. `O=[N+]([O-])c1ccc(/C=N/NS(=O)(=O)c2cccc3cnccc23)cc1` [Compound 5c, (E)-N′-(4-nitrobenzylidene)isoquinoline-5-sulphonohydrazide] registered a melting point of 168 °C. Also, the inhibition at 3 µM in series [1] worked out at 1.1%. For the same molecule, the inhibition at 3 µM in series [2] stood at 8.1%. The solubility at 4 h in series [3] came to 26 µM (≈ 9.27 µg/mL).

Consider `O=S(=O)(N/N=C/c1ccc(B(O)O)cc1)c1cccc2cnccc12` [Compound 5f, (E)-(4-((2-(isoquinolin-5-ylsulphonyl)hydrazono)methyl)phenyl)boronic acid], for which the melting point is over 250 °C. Further, the inhibition at 3 µM in series [1] worked out at 2.7%. Moreover, the inhibition at 3 µM in series [2] was determined as 7.3%. In addition, the solubility at 4 h in series [3] was determined as 58 µM (≈ 20.6 µg/mL).

On to `O=S(=O)(N/N=C/c1cccnc1)c1cccc2cnccc12` [Compound 5d, (E)-N′-(pyridin-3-ylmethylene)isoquinoline-5-sulphonohydrazide], for which the melting point is 168 °C. In series [1], the inhibition at 3 µM is 4.5%. Also, the inhibition at 3 µM in series [2] amounted to 7.6%. The solubility at 4 h in series [3] is over 64 µM.

`O=S(=O)(N/N=C/c1ccc(-c2ccccc2)cc1)c1cccc2cnccc12` [Compound 5g, (E)-N′-([1,1'-biphenyl]-4-ylmethylene)isoquinoline-5-sulphonohydrazide] displayed a melting point of 166 °C. The inhibition at 3 µM in series [1] was -1.1%. For the same molecule, the inhibition at 3 µM in series [2] is 2.4%. This molecule also yielded a solubility at 4 h in series [3] of under 0.5 µM.

`Cl.O=S(=O)(N/N=C/C1CCNCC1)c1cccc2cnccc12` [Compound 5h, (E)-N′-(piperidin-4-ylmethylene)isoquinoline-5-sulphonohydrazide hydrochloride] returned a melting point of 186 °C. Further, in series [1], the inhibition at 3 µM was 6.9%. The inhibition at 3 µM in series [2] amounted to 3.9%. Also, the solubility at 4 h in series [3] was over 84.5 µM.

Molecule `CN(C)c1ccc(/C=N/NS(=O)(=O)c2cccc3cnccc23)cc1` [Compound 5a, (E)-N′-(4-(dimethylamino)benzylidene)isoquinoline-5-sulphonohydrazide] showed a melting point of 165 °C. The inhibition at 3 µM in series [1] is 4.1%. Moreover, the inhibition at 3 µM in series [2] amounted to 0.6%. Moreover, the solubility at 4 h in series [3] stood at 5.4 µM (≈ 1.91 µg/mL).

Usually pIC50 stands for −log10 of the IC50, conventionally taken in molar units. With `O=C(N/N=C/c1ccccc1)c1cccc2cnccc12` [Compound 10, (E)-N′-benzylidene isoquinoline-5-carbohydrazide], in series [1] (setting [4]), the “ROCK1 inhibition (result in words)” value is “completely inactive”. Besides, the pIC50 in series [1] (human recombinant ROCK1, five-point assay, 1 to 50 µM, mean of two experiments) is under 4.30; in series [2] (human recombinant ROCK2, five-point assay, 1 to 50 µM, mean of two experiments), under 4.30. Further, in series [2] (setting [4]), the “ROCK2 inhibition (result in words)” value is “completely inactive”.

With `CC(=O)Nc1ccc(/C=N/NS(=O)(=O)c2cccc3cnccc23)cc1` [Compound 5e, (E)-N-(4-((2-(isoquinolin-5-ylsulphonyl)hydrazono)methyl)phenyl)acetamide], the melting point worked out at 173 °C. Moreover, in series [1], the inhibition at 3 µM came to 4.6%. Also, in series [2], the inhibition at 3 µM is -9.1%. In addition, the solubility at 4 h in series [3] was found to be 4.3 µM (≈ 1.58 µg/mL).
